In EP0536603A1, “N-Methyl-nimodipine, process for its preparation, and its use as cerebral vasodilator” (BAYER AG, priority 1991, dated 1993):

Tests used:
[1] = Plasma levels after oral administration; type: in vivo
Ratten = assay: Rat swim test (Porsolt), antidepressant effect; type: in vivo; conditions: rats
Description: Die vorzügliche Eignung von N-Methyl-Nimodipin als Prodrug für Nimodipin zeigt sich auch in seiner antidepressiven Wirkung. Im Rattenschwimmtest (vgl. R.D. Porsolt et al., European Journal of Pharmacology 47; 379 bis 391) zeigen Ratten, die 20 mg der erfindungsgemäßen Verbindung per os appliziert bekommen, eine um ca. 20 % reduzierte Immobilitätsphase im Vergleich zur Kontrolle (n = 6).

| SMILES | Plasmaspiegel von Nimodipin und bekannten Nimodipinmetaboliten ([1]; oral administration of N-Methyl-nimodipin, after 15 minutes, compared with plasma levels after multiple administration of corresponding amounts of Nimodipin) | Plasmakonzentration an unverändertem N-Methyl-Nimodipin ([1]; oral administration, same time point (15 minutes), relative to the plasma levels of Nimodipin and metabolites) | reduzierte Immobilitätsphase im Vergleich zur Kontrolle (Ratten; 20 mg per os, n = 6) | Immobilitätsphase im Rattenschwimmtest, in words (Ratten; corresponding amount of Nimodipin, compared with N-Methyl-Nimodipin) |
| --- | --- | --- | --- | --- |
| COCCOC(=O)C1=C(C)N(C)C(C)=C(C(=O)OC(C)C)C1c1cccc([N+](=O)[O-])c1 (racemic) [N-Methyl-nimodipin, (±)-1,2,6-Trimethyl-4-(3-nitrophenyl)-1,4-dihydropyridin-3,5-dicarbonsäure-isopropyl-2-methoxyethyl-ester] | mindestens so hoch sind wie die entsprechenden Plasmaspiegel nach Mehrfachapplikation entsprechender Nimodipinmengen | etwa doppelt so hohe Plasmakonzentration | ca. 20% |  |
| COCCOC(=O)C1=C(C)NC(C)=C(C(=O)OC(C)C)C1c1cccc([N+](=O)[O-])c1 (racemic) [Nimodipin, (±)2,6-Dimethyl-4-(3-nitrophenyl)-1,4-dihydropyridin-3,5-dicarbonsäure-isopropyl-2-methoxyethyl-ester] |  |  |  | vergleichbare Ergebnisse |
